Test results from PubChem BioAssay AID493013 (Southern Research Specialized Biocontainment Screening …, 2011).
Activity calls are given as the source filed them. How the calls were made is not given here.

tested on: mammalian cell line viability, cytotoxicity counter-screen; experiment: mammalian cell cytotoxicity, dose response, cytotoxicity control, secondary assay, set 2 (AID 493013); settings: not given

Row | Structure (SMILES) | CC50 [µM]
1 | OCCCc1cn(-c2ccccc2)c2ccccc12 | 90
2 | CCOc1ccc2c(c1)c(C(C)=O)c(C)n2-c1ccccc1Cl | 47.7
3 | CCOc1ccc2c(c1)c(C(C)=O)c(C)n2-c1ccccc1 | 94.5
4 | O=C(Nc1nc2ccccc2[nH]1)c1ccc(Cl)c(Cl)c1 | 83.6
5 | N/C(=N\c1nc2ccccc2o1)NC(=O)COc1ccc2ccccc2c1 | 37.3
6 | COC(=O)c1c(C)n(-c2ccccc2)c2ccc(O)cc12 | 61.3
7 | Cc1ccccc1OCC(=O)Nc1ccccc1N1CCCCC1 | 51
8 | CC(C)(Oc1ccc(Cl)cc1)C(=O)Nc1nc2ccccc2s1 | 72.3
9 | O=C(Nc1ccccc1)Nc1csc2ccccc12 | 31.9
10 | COc1ccc2nc(NC(=O)COc3ccc(C)cc3)sc2c1 | 29.8
11 | Cc1ccc2oc(/N=C(\N)NC(=O)c3ccccc3)nc2c1 | 5.79
12 | O=C(CCS(=O)(=O)c1ccc(F)cc1)Nc1nnc(-c2cccs2)o1 | 41.6
13 | O=C(COc1cccc2ccccc12)Nc1nc2ccccc2s1 | 77.7
14 | CCC(CC)c1nnc(NC(=O)c2ccc(N3CCCCC3)c([N+](=O)[O-])c2)s1 | 41.3
15 | O=C(COc1ccc(Cl)cc1)Nc1nc2ccc(F)cc2s1 | 57.2
16 | c1ccc(Nc2ncnc3c2oc2ccccc23)cc1 | 76.9
17 | O=C(COc1ccccc1)Nc1nc2ccccc2s1 | 66.7
18 | O=C(Nc1nc2ccccc2[nH]1)c1cc2cc(Br)ccc2o1 | 11.5
19 | CCOC(=O)c1cnc2cc(-c3ccc(C(C)(C)C)cc3)nn2c1N | 74.6
20 | CCOc1ccc2nc(NC(=O)COc3ccc(Cl)c(C)c3)sc2c1 | 38.6

Row | Structure (SMILES) | CC50 [µM]
21 | N/C(=N\c1nc2ccccc2o1)NC(=O)c1ccccc1 | 7.4
22 | CC(C)Cn1c2c(c(O)c(C(=O)Nc3nccs3)c1=O)CCCC2 | 78
23 | CCOc1ccc2nc(NC(=O)C3(c4ccccc4)CCCC3)sc2c1 | 62.3
24 | Cc1c(OCc2ccc(C(=O)O)cc2)ccc2c(-c3ccccc3)cc(=O)oc12 | 51.8
25 | O=C(COc1ccc2c3c(c(=O)oc2c1)CCC3)Nc1nc2ccccc2[nH]1 | 23.4
26 | CCOc1ccc2nc(NC(=O)C(C)Oc3ccccc3F)sc2c1 (centres undefined) | 67.7
27 | Cc1ccc2sc(NC(=O)COc3ccccc3)nc2c1C | 20.2
28 | Cc1ccccc1OCC(=O)Nc1ccccc1-c1ccccc1 | 77
29 | CC(=O)Nc1ccc2nc(NC(=O)COc3ccccc3)sc2c1 | 49.8
30 | COC(=O)c1sc(-c2ccc(C(C)(C)C)cc2)cc1NC(=O)CCC(=O)O | 64.7
31 | CCCN1CC(O)=C(c2nc3ccccc3s2)C1=N | 90.5
32 | N/C(=N\c1nc2cc(Cl)ccc2o1)NC(=O)c1ccccc1 | 14.5
33 | N/C(=N\c1nc2ccccc2o1)NC(=O)c1ccc(F)cc1 | 12.5
34 | Cc1ccccc1C(=O)Nc1nc2ccccc2[nH]1 | 71.4
35 | Cc1ccc(OCC(=O)Nc2ccc3c4c(cccc24)CC3)c(C)c1 | 27.2
36 | CC(Oc1ccc(Cl)cc1)C(=O)Nc1nc2ccccc2s1 (centres undefined) | 46.4
37 | COc1ccccc1C(=O)N/C(N)=N/c1nc2ccccc2o1 | 16.6
38 | COc1cccc(-c2ccc(-c3noc(-c4ccccc4F)n3)c(OC)n2)c1 | 46.7
39 | COc1ccc(Cl)cc1C(=O)Nc1nc2ccccc2[nH]1 | 25.4
40 | COc1ccc2nc(NC(=O)C(C)Oc3ccccc3)sc2c1 (centres undefined) | 87.7

tested on: not listed separately; experiment: as above; settings: mammalian cell line viability, cytotoxicity counter-screen; at 100 µM (top of the series)

Row | Structure (SMILES) | viability
41 | Oc1ccc2[nH]ccc2c1 | 101% (inactive)
42 | COc1ccc2nc(NC(=O)COc3ccccc3C(C)C)sc2c1 | 93.8% (inactive)
43 | O=C(COc1ccc2ccccc2c1)Nc1nc2ccccc2[nH]1 | 91.9% (inactive)
44 | O=C(COC(=O)C1CC1)c1c[nH]c2ccccc12 | 95.5% (inactive)
45 | Cc1ccc(OCC(=O)Nc2nc3c(Cl)cccc3s2)cc1 | 97% (inactive)
46 | O=C(O)CCC(=O)Nc1nc2ccccc2s1 | 98.8% (inactive)
47 | Cc1cc(C)c(OCC(=O)Nc2nc3ccc(C)cc3s2)c(C)c1 | 87.7% (inactive)
48 | Cc1ccc(OCC(=O)Nc2ccc(Cl)cc2)c(C)c1 | 93.6% (inactive)
49 | O=C(Cc1csc(-c2ccccc2F)n1)Nc1nc2ccccc2[nH]1 | 88.2% (inactive)
50 | Cc1ccccc1OCC(=O)Nc1ncn[nH]1 | 80.5% (inactive)
51 | O=C(CSc1n[nH]c(=O)n1C1CC1)c1ccc2c(c1)OCCO2 | 94.5% (inactive)
52 | Cc1ccccc1OCC(=O)Nc1nnn(C)n1 | 87.8% (inactive)
53 | Cc1ccc(OC(C)C(=O)Nc2ncccn2)c(C)c1 (centres undefined) | 86.1% (inactive)
54 | Cc1cc2ccccc2[nH]1 | 100% (inactive)
55 | CCOc1ccc2nc(NC(=O)COc3ccc(OC)cc3)sc2c1 | 102% (inactive)
56 | Cc1onc(-c2c(Cl)cccc2Cl)c1/C(N)=N/OC(=O)C1CC1 | 102% (inactive)
57 | CCc1ccc2nc(/N=C(\N)NC(=O)c3ccccc3)nc(C)c2c1 | 81.6% (inactive)
58 | COc1ccc2c(c1)c(C(C)=O)c(C)n2-c1ccccc1 | 92.5% (inactive)
59 | S=C(Nc1ccccc1)Nc1ccc(Cl)cn1 | 97.2% (inactive)
60 | O=C(Cc1ccccc1Cl)Nc1nc2ccccc2[nH]1 | 84.9% (inactive)

Row | Structure (SMILES) | viability
61 | CC(=O)c1c(C)n(-c2ccccc2)c2ccc(OC(C)C)cc12 | 79.6% (inactive)
62 | Cc1ccccc1OCC(=O)Nc1ncccn1 | 100% (inactive)
63 | O=C(COC(=O)C1=COCCO1)Nc1ccc2c(c1)OCO2 | 89% (inactive)
64 | O=C(COc1ccccc1Cl)Nc1nc2ccccc2s1 | 73.1% (inactive)
65 | CC(=O)c1c(C)n(-c2ccccc2)c2ccc(O)cc12 | 80.4% (inactive)
66 | COc1ccc2nc(NC(=O)COc3c(C)cc(C)cc3C)sc2c1 | 79.6% (inactive)
67 | COc1cccc(NC(=O)C2CC2)c1 | 102% (inactive)
68 | Cc1ccc(OCC(=O)Nc2cccc3c(NC(=O)COc4ccc(C)cc4C)cccc23)c(C)c1 | 96.3% (inactive)
69 | N/C(=N\c1nc2ccccc2o1)NC(=O)c1ccccc1Br | 84.6% (inactive)
70 | COc1ccc(C(=O)Nc2ccc3nc(N4CCCCC4)cc(C)c3c2)c(OC)c1 | 92% (inactive)
71 | COc1ccc2nc(NC(=O)COc3ccccc3)sc2c1 | 83.9% (inactive)
72 | COC(=O)c1ccc2nc(NC(=O)COc3ccccc3)sc2c1 | 88.8% (inactive)
73 | CC(=O)c1c(C)n(-c2ccccc2C)c2ccc(O)cc12 | 82.3% (inactive)
74 | Cc1cccc(C)c1OCC(=O)Nc1nc2ccccc2s1 | 84.5% (inactive)
75 | Cc1ccc(OCC(=O)Nc2nnn(C)n2)c(C)c1 | 85.2% (inactive)
76 | Cc1ccc(OCC(=O)Nc2nc3ccc(F)cc3s2)cc1 | 84.2% (inactive)
77 | CCOc1ccc(NC(=O)COc2ccc(C)cc2C)cc1 | 78.7% (inactive)
78 | Cc1cc(C)c(OCC(=O)Nc2nc3ccccc3[nH]2)c(C)c1 | 85.7% (inactive)
79 | Cc1cc(C)c(OCC(=O)Nc2nc3ccccc3s2)c(Cl)c1 | 83.2% (inactive)
80 | CCCOc1ccc2c(c1)c(C(C)=O)c(C)n2-c1ccccc1 | 97.1% (inactive)

Row | Structure (SMILES) | viability
81 | CC(=O)c1c(C)n(-c2cccc(Cl)c2)c2ccc(O)cc12 | 78.9% (inactive)
82 | Cc1cccnc1NC(=S)NC(=O)c1cncc(Br)c1 | 106% (inactive)
83 | Cc1cc2cc(O)ccc2[nH]1 | 105% (inactive)
84 | COc1cccc(NC(=S)Nc2cc(C)cc(C)n2)c1 | 89.5% (inactive)
85 | Cc1cc2cc(Cl)ccc2[nH]1 | 84.1% (inactive)
86 | O=C(CC12CC3CC(CC(C3)C1)C2)NCc1ccc(F)cc1 | 86.5% (inactive)
87 | c1ccc(OCc2nnc(-c3ccccc3)o2)cc1 | 72.5% (inactive)
88 | N/C(=N\c1nc2ccccc2o1)NC(=O)c1ccccc1F | 96.4% (inactive)
89 | CC(=O)Nc1ccc2nc(NC(=O)Cc3ccccc3)sc2c1 | 82.2% (inactive)
90 | CCOc1ccc2nc(NC(=O)COc3ccccc3)sc2c1 | 76.4% (inactive)
91 | COc1ccc2nc(NC(=O)COc3ccc(Cl)cc3)sc2c1 | 92.1% (inactive)
92 | Cc1cc2cc(F)ccc2[nH]1 | 95% (inactive)
93 | Cc1ccccc1OCC(=O)Nc1noc(-c2ccccc2)n1 | 96.4% (inactive)
94 | CCOc1ccc2nc(NC(=O)Cc3ccc(OC)cc3)sc2c1 | 83.6% (inactive)
95 | O=C(OC(C(=O)Nc1ccc(Cl)cc1C(F)(F)F)c1ccccc1)C1=COCCO1 (centres undefined) | 72.7% (inactive)
96 | CN(NC(=O)c1c(Cl)cccc1Cl)c1cccc(Cl)n1 | 79.9% (inactive)
97 | COc1ccc2nc(NC(=O)c3oc4ccccc4c3C)sc2c1 | 80.8% (inactive)
98 | CCOc1ccc2c(c1)c(C(C)=O)c(C)n2Cc1ccco1 | 94.5% (inactive)
99 | CCOc1ccc2nc(NC(=O)COc3ccc(F)cc3)sc2c1 | 96.4% (inactive)
